The values below come from PubChem BioAssay (NCI).

Test systems include A549 NSCLC; COLO 205 colon; SN12C renal; SK-MEL-28 melanoma; HCT-116 colon; HL-60(TB) leukemia; A498 renal; UO-31 renal; IGROV1 ovarian; LOX IMVI melanoma.
Holding throughout (experiment): NCI-60 cell line screen, 48 h

“And” between values parts separate entries of the source, which are not always exact repeats. Identical values can stand only once.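 Compound exposure: 48 hours, 5 concentrations, 96-well plates. Abbreviation: GI50, concentration required for 50% inhibition of growth. TGI: concentration producing complete growth inhibition.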

On to `Cc1ccc(/C=C/C(=O)c2cccc3ccccc23)cc1`, for which the TGI was 43.2 µM with A549 NSCLC; 56.4 µM in the experiment on COLO 205 colon; 27.4 µM with SN12C renal; 35.4 µM in the experiment with SK-MEL-28 melanoma; 24.6 µM in the experiment with HCT-116 colon; 28.3 µM in the experiment on HL-60(TB) leukemia. Also, the figures for the TGI in the experiment on A498 renal and in the experiment on UO-31 renal were 27.4 µM and 39.7 µM, respectively.

With `CC1SC(c2ccc(F)cc2)N(NC(=O)C(O)c2ccccc2)C1=O` (configuration not stated), the GI50 in the experiment with A549 NSCLC, in the experiment with SN12C renal, with SK-MEL-28 melanoma, in the experiment on IGROV1 ovarian, in the experiment on HCT-116 colon and in the experiment on HL-60(TB) leukemia was more than 100 µM throughout. Also, the GI50 in the experiment on LOX IMVI melanoma, with A498 renal and with UO-31 renal was more than 100 µM throughout. Further, the TGI with A549 NSCLC, in the experiment with SN12C renal, in the experiment on SK-MEL-28 melanoma, in the experiment on IGROV1 ovarian, with HCT-116 colon and in the experiment on HL-60(TB) leukemia was more than 100 µM each time. For the same compound, the TGI in the experiment on LOX IMVI melanoma, with A498 renal and with UO-31 renal was more than 100 µM each time.

On to `O=C1CN(c2cccc(Cl)c2)C(=O)CN1CCN1CC(=O)N(c2cccc(Cl)c2)CC1=O`, for which the TGI with A549 NSCLC, in the experiment on COLO 205 colon, in the experiment with SN12C renal, with SK-MEL-28 melanoma, in the experiment on IGROV1 ovarian and with HCT-116 colon was more than 100 µM in each case. Moreover, the TGI in the experiment with HL-60(TB) leukemia, in the experiment with A498 renal and with UO-31 renal was more than 100 µM each time.

On to `COc1ccc(C2[C@@H](c3ccccc3)C(=O)N2c2cc(OC)c(OC)c(OC)c2)cc1F` (some centres not stated), for which the GI50 was 0.0368 µM in the experiment on A549 NSCLC; 0.0561 µM in the experiment with SN12C renal; 1.37 µM in the experiment with SK-MEL-28 melanoma; 0.0428 µM in the experiment with IGROV1 ovarian; 0.0324 µM in the experiment with HCT-116 colon; 0.0223 µM in the experiment with HL-60(TB) leukemia. Further, the values for the GI50 in the experiment on LOX IMVI melanoma, in the experiment on A498 renal and in the experiment with UO-31 renal were 0.0296 µM, 0.027 µM and 0.0771 µM, respectively. In addition, the TGI in the experiment with A549 NSCLC is more than 100 µM; in the experiment on SN12C renal it was more than 100 µM; in the experiment with SK-MEL-28 melanoma it was more than 100 µM; in the experiment on IGROV1 ovarian, more than 100 µM; with HCT-116 colon, 10.4 µM; in the experiment on HL-60(TB) leukemia, 0.0542 µM. The TGI in the experiment with LOX IMVI melanoma was 13.8 µM; with A498 renal, 0.0861 µM; with UO-31 renal, more than 100 µM.

Turning to `O=C(Oc1ccc(Cl)cc1)c1ccccc1Nc1ccnc(C(F)(F)F)c1`, the GI50 in the experiment with A549 NSCLC is 15.3 µM; in the experiment with SN12C renal, 2.95 µM; with IGROV1 ovarian, 15.3 µM; in the experiment with HL-60(TB) leukemia, 6.48 µM; in the experiment on UO-31 renal it was 28.2 µM. In addition, the TGI in the experiment on A549 NSCLC is 52.3 µM; in the experiment on SN12C renal, 8.72 µM; in the experiment on IGROV1 ovarian, more than 100 µM; in the experiment on HL-60(TB) leukemia it was more than 100 µM; in the experiment on UO-31 renal it was more than 100 µM.

As to `C/C(=C\CBr)CCC(Br)C(C)(C)Br` (configuration not stated), the TGI with A549 NSCLC, in the experiment on COLO 205 colon, with SN12C renal, in the experiment on SK-MEL-28 melanoma, with IGROV1 ovarian and with HCT-116 colon was more than 100 µM in each case. The TGI with HL-60(TB) leukemia, in the experiment with A498 renal and with UO-31 renal was more than 100 µM in each case.

As to `CCOC(=O)C1=C(C(=O)OCC)C2c3ccccc3C=CN2C(C(=O)OCC)=C(SC)S1` (configuration not stated), the TGI in the experiment with A549 NSCLC, in the experiment with COLO 205 colon, with SN12C renal, in the experiment on SK-MEL-28 melanoma, with IGROV1 ovarian and in the experiment on HCT-116 colon was more than 100 µM throughout. The TGI in the experiment with HL-60(TB) leukemia, with LOX IMVI melanoma and in the experiment on UO-31 renal was more than 100 µM throughout.

As for `S=c1sc2c(n1-c1ccccc1)NC=NC2S` (configuration not stated), the TGI in the experiment with A549 NSCLC, in the experiment with COLO 205 colon, with SN12C renal, with SK-MEL-28 melanoma, with IGROV1 ovarian and in the experiment with HCT-116 colon was more than 100 µM each time. The TGI in the experiment on HL-60(TB) leukemia, in the experiment with LOX IMVI melanoma and in the experiment on UO-31 renal was more than 100 µM each time.

As for `CCCCCCCCCCCCCCCC[N+](C)(C)Cc1ccccc1`, the GI50 in the experiment on COLO 205 colon is 1.65 µM; with SK-MEL-28 melanoma, 1.68 µM; in the experiment with IGROV1 ovarian it was 0.209 µM; in the experiment on HL-60(TB) leukemia, 0.859 µM; in the experiment with A498 renal it was 1.92 µM and 1.87 µM; with UO-31 renal, 2.98 µM and 2.01 µM. The TGI was 3.24 µM in the experiment on COLO 205 colon; 3.19 µM with SK-MEL-28 melanoma; 0.533 µM with IGROV1 ovarian; 2.45 µM in the experiment with HL-60(TB) leukemia; 6.3 µM and 4.83 µM in the experiment on A498 renal; 22.8 µM and 8.18 µM in the experiment on UO-31 renal.

Consider `CCCCCC[C@@H]1CCC2C(CO)[C@@H](O)CC[C@@H]2C1` (some centres not stated), for which the TGI with A549 NSCLC amounted to 32.1 µM; in the experiment on COLO 205 colon, 35.1 µM; with SN12C renal, 30.6 µM; in the experiment on SK-MEL-28 melanoma, 34.3 µM; in the experiment with IGROV1 ovarian, 34.7 µM; in the experiment with HCT-116 colon, 32.1 µM. For the same compound, the TGI in the experiment on LOX IMVI melanoma is 34.6 µM; with UO-31 renal it was 38.7 µM.

On to `O=S(=O)(c1ccccc1)N1CCN(S(=O)(=O)c2ccccc2)c2ccccc21`, for which the TGI in the experiment with A549 NSCLC, in the experiment with COLO 205 colon, in the experiment with SN12C renal, in the experiment on SK-MEL-28 melanoma, in the experiment on IGROV1 ovarian and in the experiment with HCT-116 colon was more than 100 µM throughout. For the same compound, the TGI in the experiment with LOX IMVI melanoma, in the experiment with A498 renal and in the experiment with UO-31 renal was more than 100 µM throughout.

As for `COc1ccc(CCN=C2NC(=O)/C(=C/c3ccc4ncccc4c3)S2)cc1`, the GI50 in the experiment on A549 NSCLC, with COLO 205 colon, in the experiment on SN12C renal, in the experiment on SK-MEL-28 melanoma, in the experiment with IGROV1 ovarian and with HCT-116 colon was more than 25 µM throughout. The figures for the GI50 in the experiment on LOX IMVI melanoma, with A498 renal and in the experiment with UO-31 renal were more than 25 µM, more than 18.3 µM and more than 25 µM, respectively. Moreover, the TGI in the experiment with A549 NSCLC, with COLO 205 colon, in the experiment with SN12C renal, in the experiment with SK-MEL-28 melanoma, in the experiment with IGROV1 ovarian and in the experiment with HCT-116 colon was more than 25 µM throughout. Moreover, the TGI with LOX IMVI melanoma, in the experiment on A498 renal and with UO-31 renal was more than 25 µM each time.
